Assay results as given in patent US6737383B1, “Herbicidal oxadiazolidines” (priority 1999, dated 2004).

Assays:
bedstraw = experiment: Test B pre/postemergence bedstraw; type: in vivo, Galium aparine; details: for Bedstraw plant response rating: scale of 0 to 10 where 0 is no effect and 10 is complete control
In short: (§1)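 Herbicidal effect was estimated by eye on a ten-point control scale after plants spent twelve to sixteen days in a greenhouse following soil or foliar treatment. Foliar sprays targeted plants at one to four leaves; all doses were formulated in a non-phytotoxic solvent with surfactant.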

blackgrass = experiment: Test B pre/postemergence blackgrass; type: in vivo, Alopecurus myosuroides; details: for Blackgrass plant response rating: scale of 0 to 10 where 0 is no effect and 10 is complete control
In short: as §1

surinam grass = experiment: Test B pre/postemergence surinam grass; type: in vivo, Brachiaria decumbens; details: for B. signalgrass plant response rating: scale of 0 to 10 where 0 is no effect and 10 is complete control
In short: as §1

cocklebur = experiment: Test B pre/postemergence cocklebur; type: in vivo, Xanthium strumarium; details: for Cocklebur plant response rating: scale of 0 to 10 where 0 is no effect and 10 is complete control
In short: as §1

corn = experiment: Test B pre/postemergence corn; type: in vivo, Zea mays; details: for Corn plant response rating: scale of 0 to 10 where 0 is no effect and 10 is complete control
In short: as §1

crabgrass = experiment: Test B pre/postemergence crabgrass; type: in vivo, Digitaria sanguinalis; details: for Crabgrass plant response rating: scale of 0 to 10 where 0 is no effect and 10 is complete control
In short: as §1

giant foxtail = experiment: Test B pre/postemergence giant foxtail; type: in vivo, Setaria faberii; details: for Giant foxtail plant response rating: scale of 0 to 10 where 0 is no effect and 10 is complete control
In short: as §1

rape = experiment: Test B pre/postemergence rape; type: in vivo, Brassica napus; details: for Rape plant response rating: scale of 0 to 10 where 0 is no effect and 10 is complete control
In short: as §1

soybean = experiment: Test B pre/postemergence soybean; type: in vivo, Glycine max; details: for Soybean plant response rating: scale of 0 to 10 where 0 is no effect and 10 is complete control
In short: as §1

sugar beet = experiment: Test B pre/postemergence sugar beet; type: in vivo, Beta vulgaris; details: for Sugarbeets plant response rating: scale of 0 to 10 where 0 is no effect and 10 is complete control
In short: as §1

velvetleaf = experiment: Test B pre/postemergence velvetleaf; type: in vivo, Abutilon theophrasti; details: for Velvetleaf plant response rating: scale of 0 to 10 where 0 is no effect and 10 is complete control
In short: as §1

wheat = experiment: Test B pre/postemergence wheat; type: in vivo, Triticum aestivum; details: for Wheat plant response rating: scale of 0 to 10 where 0 is no effect and 10 is complete control
In short: as §1

purple nutsedge = experiment: Test B pre/postemergence purple nutsedge; type: in vivo, Cyperus rotundus; details: for Nutsedge plant response rating: scale of 0 to 10 where 0 is no effect and 10 is complete control
In short: as §1

rice = experiment: Test B flood test rice; type: in vivo, Oryza sativa
In short: (§2)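 Plants were grown to the 2-leaf stage before treatment with test chemical, then held in a greenhouse for twelve to sixteen days. Injury was visually rated against untreated controls on a 0–10 scale, where 0 is no effect and 10 is complete control.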

smallflower flatsedge = experiment: Test B flood test smallflower flatsedge; type: in vivo, Cyperus difformis
In short: as §2

duck salad = experiment: Test B flood test duck salad; type: in vivo, Heteranthera limosa
In short: as §2

bamyardgrass = experiment: Test B flood test barnyardgrass; type: in vivo, Echinochloa crus-galli
In short: as §2

[1] = Postemergence, Rate 125 g/ha, scale 0 to 10, 0 is no effect, 10 is complete control
[2] = Postemergence, Rate 250 g/ha, scale 0 to 10, 0 is no effect, 10 is complete control
[3] = Preemergence, Rate 62 g/ha, scale 0 to 10 (0 no effect, 10 complete control)
[4] = Rate 500 g/ha, Postemergence, scale 0 to 10, 0 no effect, 10 complete control
[5] = Postemergence (flood test), Rate 125 g/ha, scale 0 to 10, 0 is no effect, 10 is complete control
[6] = Rate 62 g/ha, Postemergence (flood test species), scale of 0 to 10 where 0 is no effect and 10 is complete control
[7] = Rate 500 g/ha, listed under Postemergence (flood test species), scale 0 to 10, 0 no effect, 10 complete control
[8] = flood test species, listed under Postemergence, Rate 250 g/ha, scale 0 to 10, 0 is no effect, 10 is complete control

## CCN(CC)C(=O)n1oc(=O)n(-c2ccccc2C)c1=O [Compound 364]
bedstraw; [1]
  Plant response rating, Bedstraw: 0
bedstraw; [2]
  Plant response rating, Bedstraw: 0
bedstraw; [3]
  Plant response rating, Bedstraw: 0
bedstraw; Preemergence, Rate 125 g/ha
  Bedstraw plant response rating (0 to 10 scale): 0
bedstraw; Preemergence, Rate 250 g/ha
  Bedstraw plant response rating: 0
bedstraw; Preemergence, Rate 500 g/ha
  Bedstraw plant response rating: 3
bedstraw; Rate 62 g/ha, Postemergence
  Bedstraw plant response rating: 0
bedstraw; [4]
  Plant response rating, Bedstraw: 0
blackgrass; [1]
  Plant response rating, Blackgrass: 0
blackgrass; [2]
  Plant response rating, Blackgrass: 0
blackgrass; [3]
  Plant response rating, Blackgrass: 0
blackgrass; Preemergence, Rate 125 g/ha
  Blackgrass plant response rating (0 to 10 scale): 0
blackgrass; Preemergence, Rate 250 g/ha
  Blackgrass plant response rating: 1
blackgrass; Preemergence, Rate 500 g/ha
  Blackgrass plant response rating: 4
blackgrass; Rate 62 g/ha, Postemergence
  Blackgrass plant response rating: 0
blackgrass; [4]
  Plant response rating, Blackgrass: 2
Surinam grass; [1]
  Plant response rating, B. signalgrass: 0
Surinam grass; [2]
  Plant response rating, B. signalgrass: 0
Surinam grass; [3]
  Plant response rating, B. signalgrass: 0
Surinam grass; Preemergence, Rate 125 g/ha
  B. signalgrass plant response rating (0 to 10 scale, 0 is no effect, 10 is complete control): 0
Surinam grass; Preemergence, Rate 250 g/ha
  B. signalgrass plant response rating: 0
Surinam grass; Preemergence, Rate 500 g/ha
  B. signalgrass plant response rating: 3
Surinam grass; Rate 62 g/ha, Postemergence
  B. signalgrass plant response rating: 0
Surinam grass; [4]
  Plant response rating, B. signalgrass: 1
cocklebur; [1]
  Plant response rating, Cocklebur: 0
cocklebur; [2]
  Plant response rating, Cocklebur: 0
cocklebur; [3]
  Plant response rating, Cocklebur: 0
cocklebur; Preemergence, Rate 125 g/ha
  Cocklebur plant response rating (0 to 10 scale): 0
cocklebur; Preemergence, Rate 250 g/ha
  Cocklebur plant response rating: 0
cocklebur; Preemergence, Rate 500 g/ha
  Cocklebur plant response rating: 0
cocklebur; Rate 62 g/ha, Postemergence
  Cocklebur plant response rating: 0
cocklebur; [4]
  Plant response rating, Cocklebur: 2
corn; [1]
  Plant response rating, Corn: 0
corn; [2]
  Plant response rating, Corn: 2
corn; [3]
  Plant response rating, Corn: 0
corn; Preemergence, Rate 125 g/ha
  Corn plant response rating (0 to 10 scale): 0
corn; Preemergence, Rate 250 g/ha
  Corn plant response rating: 0
corn; Preemergence, Rate 500 g/ha
  Corn plant response rating: 0
corn; Rate 62 g/ha, Postemergence
  Corn plant response rating: 0
corn; [4]
  Plant response rating, Corn: 3
crabgrass; [1]
  Plant response rating, Crabgrass: 0
crabgrass; [2]
  Plant response rating, Crabgrass: 0
crabgrass; [3]
  Plant response rating, Crabgrass: 0
crabgrass; Preemergence, Rate 125 g/ha
  Crabgrass plant response rating (0 to 10 scale): 0
crabgrass; Preemergence, Rate 250 g/ha
  Crabgrass plant response rating: 2
crabgrass; Preemergence, Rate 500 g/ha
  Crabgrass plant response rating: 5
crabgrass; Rate 62 g/ha, Postemergence
  Crabgrass plant response rating: 0
crabgrass; [4]
  Plant response rating, Crabgrass: 2
Giant foxtail; [1]
  Plant response rating, Giant foxtail: 3
Giant foxtail; [2]
  Plant response rating, Giant foxtail: 6
Giant foxtail; [3]
  Plant response rating, Giant foxtail: 3
Giant foxtail; Preemergence, Rate 125 g/ha
  Giant foxtail plant response rating (0 to 10 scale): 6
Giant foxtail; Preemergence, Rate 250 g/ha
  Giant foxtail plant response rating: 9
Giant foxtail; Preemergence, Rate 500 g/ha
  Giant foxtail plant response rating: 10
Giant foxtail; Rate 62 g/ha, Postemergence
  Giant foxtail plant response rating: 0
Giant foxtail; [4]
  Plant response rating, Giant foxtail: 8
rape; [1]
  Plant response rating, Rape: 0
rape; [2]
  Plant response rating, Rape: 0
rape; [3]
  Plant response rating, Rape: 0
rape; Preemergence, Rate 125 g/ha
  Rape plant response rating (0 to 10 scale): 0
rape; Preemergence, Rate 250 g/ha
  Rape plant response rating: 0
rape; Preemergence, Rate 500 g/ha
  Rape plant response rating: 2
rape; Rate 62 g/ha, Postemergence
  Rape plant response rating: 0
rape; [4]
  Plant response rating, Rape: 0
soybean; [1]
  Plant response rating, Soybean: 2
soybean; [2]
  Plant response rating, Soybean: 3
soybean; [3]
  Plant response rating, Soybean: 0
soybean; Preemergence, Rate 125 g/ha
  Soybean plant response rating (0 to 10 scale): 0
soybean; Preemergence, Rate 250 g/ha
  Soybean plant response rating: 0
soybean; Preemergence, Rate 500 g/ha
  Soybean plant response rating: 0
soybean; Rate 62 g/ha, Postemergence
  Soybean plant response rating: 0
soybean; [4]
  Plant response rating, Soybean: 3
Sugar beet; [1]
  Plant response rating, Sugarbeets: 0
Sugar beet; [2]
  Plant response rating, Sugarbeets: 0
Sugar beet; [3]
  Plant response rating, Sugarbeets: 0
Sugar beet; Preemergence, Rate 125 g/ha
  Sugarbeets plant response rating (0 to 10 scale): 0
Sugar beet; Preemergence, Rate 250 g/ha
  Sugarbeets plant response rating: 0
Sugar beet; Preemergence, Rate 500 g/ha
  Sugarbeets plant response rating: 0
Sugar beet; Rate 62 g/ha, Postemergence
  Sugarbeets plant response rating: 0
Sugar beet; [4]
  Plant response rating, Sugarbeets: 1
velvetleaf; [1]
  Plant response rating, Velvetleaf: 0
velvetleaf; [2]
  Plant response rating, Velvetleaf: 0
velvetleaf; [3]
  Plant response rating, Velvetleaf: 0
velvetleaf; Preemergence, Rate 125 g/ha
  Velvetleaf plant response rating (0 to 10 scale): 0
velvetleaf; Preemergence, Rate 250 g/ha
  Velvetleaf plant response rating: 0
velvetleaf; Preemergence, Rate 500 g/ha
  Velvetleaf plant response rating: 0
velvetleaf; Rate 62 g/ha, Postemergence
  Velvetleaf plant response rating: 0
velvetleaf; [4]
  Plant response rating, Velvetleaf: 0
wheat; [1]
  Plant response rating, Wheat: 0
wheat; [2]
  Plant response rating, Wheat: 0
wheat; [3]
  Plant response rating, Wheat: 0
wheat; Preemergence, Rate 125 g/ha
  Wheat plant response rating (0 to 10 scale): 0
wheat; Preemergence, Rate 250 g/ha
  Wheat plant response rating: 0
wheat; Preemergence, Rate 500 g/ha
  Wheat plant response rating: 0
wheat; Rate 62 g/ha, Postemergence
  Wheat plant response rating: 0
wheat; [4]
  Plant response rating, Wheat: 0
Purple nutsedge; [1]
  Plant response rating, Nutsedge: 0
Purple nutsedge; [2]
  Plant response rating, Nutsedge: 0
Purple nutsedge; [3]
  Plant response rating, Nutsedge: 0
Purple nutsedge; Preemergence, Rate 125 g/ha
  Nutsedge plant response rating (0 to 10 scale): 0
Purple nutsedge; Preemergence, Rate 250 g/ha
  Nutsedge plant response rating: 0
Purple nutsedge; Rate 62 g/ha, Postemergence
  Nutsedge plant response rating: 0
Purple nutsedge; [4]
  Plant response rating, Nutsedge: 0
rice; [5]
  Plant response rating, Rice: 0
rice; [6]
  Rice plant response rating: 0
rice; [7]
  Plant response rating, Rice: 0
rice; [8]
  Plant response rating, Rice: 0
Smallflower flatsedge; [5]
  Plant response rating, S. Flatsedge: 0
Smallflower flatsedge; [6]
  S. Flatsedge plant response rating: 0
Smallflower flatsedge; [7]
  Plant response rating, S. Flatsedge: 3
Smallflower flatsedge; [8]
  Plant response rating, S. Flatsedge: 0
Duck salad; [5]
  Plant response rating, Ducksalad: 0
Duck salad; [6]
  Ducksalad plant response rating: 0
Duck salad; [7]
  Plant response rating, Ducksalad: 0
Duck salad; [8]
  Plant response rating, Ducksalad: 0
bamyardgrass; [5]
  Plant response rating, Barnyardgrass: 0
bamyardgrass; [6]
  Barnyardgrass plant response rating: 0
bamyardgrass; [7]
  Plant response rating, Barnyardgrass: 0
bamyardgrass; [8]
  Plant response rating, Barnyardgrass: 0
